Source: article PMC9511493, “2-(Fluoromethoxy)-4′-(S-methanesulfonimidoyl)-1,1′-biphenyl (UCM-1306), an Orally Bioavailable Positive Allosteric Modulator of the Human Dopamine D1 Receptor for Parkinson’s Disease” (Journal of Medicinal Chemistry, 2022)
Several values for one entry are separate records, joined by “and”; a condition that tells them apart may be missing. Equal values may be shown once. Entries after “also recorded” stand apart in the source; their conditions may differ. Read-outs that look alike come from different tables or passages of the source.

Tests used:
[1] = plasma, brain and CSF levels after a single oral dose in mice; assay type: in vivo, mouse
Protocol: Prior to the evaluation of the new D1R PAM 26 in animal models, the in vivo cerebrospinal fluid (CSF) and brain permeability were studied. […] Concentrations in the CSF and brain were quantifiable up to 4 h. Brain-to-plasma concentration ratios were in the range of 0.55–1.15 between 0.5 and 4 h and CSF-to-plasma concentration ratio in the range of 0.13–0.21 between 0.5 and 4 h.
Figure 5 Compound levels in the plasma, brain, and CSF of mouse administered with 5 mg/kg (po) of compound 26. Horizontal dotted line indicates the EC50 value of the compound.

C57BL/6J mice = test: novel object recognition test; assay type: in vivo, mouse; conditions: 1 mg/kg ip; tested at 24 and 96 h
Protocol: Procedures for animal experiments were conducted in adherence to the European Communities Council Directive (86/609/ECC) and Spanish regulations (BOE 252/34367-91, 2005) for the use of laboratory animals. Experiments were performed on 3 month old male mice with a C57BL/6J background. Eight mice were used for each experimental condition. Mice were maintained on a 12 h light/dark cycle (lights on at 08:00 am), with water and food provided ad libitum. Object recognition test was performed according to a previously reported method.[58] Briefly, mice were first habituated to an empty open field apparatus (40 × 40 × 40 cm) for 5 min. After the habituation session, mice received an ip injection of compound 26 (1 mg/kg) or vehicle (NaCl 0.9%). Twenty minutes later, mice were placed again in the open field, which now included two identical copies of an object (“familiar” object) located in two adjacent corners, and mice were allowed to explore for 10 min (acquisition session). […] The total time of object exploration (defined as the mouse touching an object with its nose or forepaws) was scored, and object recognition memory was calculated by the following discrimination ratio: time exploring the new object—time exploring the familiar object)/total time exploring both objects.

[2] = plasma and brain concentrations in the locomotor activity study; assay type: in vivo, mouse; conditions: 30 mg/kg po; for concentration at 30 min / concentration at 60 min: male, C57BL/6, mouse, po, 30 mg/kg
Protocol: Regarding the PD model, reserpine is an alkaloid known to induce hypomobility/akinesia and rigidity, and reserpinized rodents are widely used as a preclinical model for PD.
The study was carried out in male C57BL/6 wild-type (22–25 g) mice that were acclimatized for 5 days. Animals were randomized based on body weight into six groups (G1 to G6), ten animals per group (n = 10), being group G1 the naïve control group. Animals were fed with standard diet ad libitum. Animals were dosed with subcutaneous administration of reserpine (2.5 mg/kg in DMSO/saline) and after 20 h they were treated with a vehicle (10 mL/kg, po), compound 26 (30 mg/kg, po), L-DOPA (100 or 400 mg/kg, ip) + carbidopa (100 mg/kg, ip) and/or their combination, as indicated in Figure 7. The vehicle employed for compound 26 administration was 5% NMP + 5% solutol HS-15 + 90% normal saline. L-DOPA and carbidopa were administered 30 min prior to start of locomotor activity recording. Compound 26 was administered and 15 min later, mice were placed in the locomotor activity cage to measure the locomotor activity for 60 min (total distance travelled) using ALL Maze version 0.5 automated software enabled with video tracking system. After the activity sessions, raw data were reduced using ALL Maze 5.0 software and Microsoft Excel. Statistical analysis was done with GraphPad Prism-5 using one way ANOVA followed by Dunnett’s test/Tukey’s post hoc test and/or two-way ANOVA followed by Bonferroni post hoc test. Data were considered statistically significant, if P value was less than 0.05. […]
Table S2.Plasma and brain concentrations achieved for compound 26in the locomotor
Plasma concentration (ng/mL) Brain concentration (ng/mL)
Animal 30 min 60 min Animal 30 min 60 min

- CSF-to-plasma free concentration ratio ([1]; 5 mg/kg po): approximately 1
- time up to which CSF concentrations were quantifiable ([1]; 5 mg/kg po, male BALB/c mice): 4 h
- time up to which brain concentrations were quantifiable ([1]; 5 mg/kg po, male BALB/c mice): 4 h
- time up to which plasma concentrations were quantifiable ([1]; 5 mg/kg po, male BALB/c mice): 8 h
- Kp ([1]; male, BALB/c, mouse, CSF and plasma, 5 mg/kg po, between 0.5 and 4 h, read-out: CSF-to-plasma concentration ratio): 0.13 to 0.21
- Kp at 4 h ([1]; male, BALB/c, mouse, brain and plasma, 5 mg/kg po, between 0.5 and 4 h, read-out: brain-to-plasma concentration ratio): 0.55 to 1.15
- Tmax at 8 h ([1]; mouse, plasma, 5 mg/kg single oral dose, male BALB/c mice): 30 min
- melting point: 144 to 145 °C
- Brain concentration (ng/mL), individual animals 1-3 ([2]; 30 min): 7185.33 ng/mL and 5537.43 ng/mL
- Plasma concentration (ng/mL), individual animals 1-3 ([2]; 30 min): 9994.87 ng/mL and 7753.96 ng/mL
- concentration at 30 min ([2]; brain, 30 min, read-out: Brain concentration (ng/mL), individual animals 1-3): 7340 ng/mL
- concentration at 30 min ([2]; brain, 30 min, read-out: Brain concentration (ng/mL), mean): 6690 ng/mL
- concentration at 60 min ([2]; brain, 60 min, read-out: Brain concentration (ng/mL), mean): 4120 ng/mL
- concentration at 30 min ([2]; plasma, 30 min, read-out: Plasma concentration (ng/mL), individual animals 1-3): 9690 ng/mL
- concentration at 30 min ([2]; plasma, 30 min, read-out: Plasma concentration (ng/mL), mean): 9150 ng/mL
- concentration at 60 min ([2]; plasma, 60 min, read-out: Plasma concentration (ng/mL), mean): 4860 ng/mL
Compound: CS(=N)(=O)c1ccc(-c2ccccc2OCF)cc1 (stereo not shown) [Compound 26, 2-(Fluoromethoxy)-4′-(S-methanesulfonimidoyl)-1,1′-biphenyl]
- memory in the novel object recognition test (C57BL/6J mice): increases memory trace; also recorded: Enhanced memory
- Brain concentration (ng/mL), individual animals 1-3 ([2]; 60 min): 5552.94 ng/mL and 2620.14 ng/mL and 4178.34 ng/mL
- Plasma concentration (ng/mL), individual animals 1-3 ([2]; 60 min): 6716.72 ng/mL and 6187.65 ng/mL and 1662.96 ng/mL
